US4137236A, “Amino-spiro[oxa(or thia)cycloalkane-penam]-carboxylic” (U C B, Societe Anonyme, priority 1977, dated 1979)
One block for each compound: values may come before it.

How the values were obtained:
[1] = tested on: Staphylococcus aureus 6538; experiment: MIC in gelose culture medium (relative to reference penicillin); type: cell-based; conditions: S.AUREUS 6538
Experimental: This is a Gram-positive coccus which is particularly sensitive to penicillins and which has a low resistance mechanism. This strain of Staphylococcus is, therefore, representative of a maximum sensitivity of the species.
(§1) For a certain number of compounds of formula (XV), the minimum inhibitory concentration (MIC) was determined as follows:
(§2) The products to be tested are introduced in increasing concentrations into a gelose culture medium in Petri dishes. A multiple inoculator is used to deposit simultaneously drops (10 microliters) of inoculum (suspension of approximately 10^5 bacteria per ml) onto the surface of the medium. After incubation at 37° C for 24 hours, the growth of the bacteria is observed. By definition, the MIC is expressed by the minimum concentration of tested compound which inhibits the multiplication of the bacteia. In the following results, however, the MIC is given as being equal to 1 for the reference compounds and the activity figures given for the tested compounds of formula (XV) are, therefore, relative values. This presentation of the results is more correct and the most reproducible because, for one and the same bacterial strain, different MIC values can be observed if they are measured at different times. This is bound up with the "seasonal" variations in the strains and their nutrient medium.

[2] = tested on: Escherichia coli B-Ampi R; experiment: as above; type: cell-based; conditions: E.COLI B AMPI-R
Experimental: This is a mutant of the preceding strain which we have produced.
as §1, §2

[3] = tested on: Staphylococcus aureus 52149; experiment: as above; type: cell-based; conditions: S.AUREUS 52149
Experimental: This is a Gram-positive coccus, the intrinsic sensitivity of the receptor of which is equivalent to that of the preceding strain but which produces a beta-lactamase which is typical of the species and which renders it resistant to all the penicillins which are sensitive to hydrolysis.
as §1, §2

[4] = tested on: beta-lactamase TEM; experiment: Rate of hydrolysis by beta-lactamase measured as NaOH consumed per minute; type: biochemical
From the text: This method allows the dosage of the penicilloic acid resulting from the hydrolysis of the beta-lactam function by the lytic enzyme. The results of these kinetics, as given in the following Table, clearly show the superiority of compounds E and H as compared with pencillin G.

[5] = tested on: Escherichia coli B; experiment: MIC in gelose culture medium (relative to reference penicillin); type: cell-based; conditions: E.COLI B
Experimental: This is a well-known collection strain of Escherichia coli which produces very little beta-lactamase (of type I) and is, therefore, very sensitive to penicillins. As regards the classification of the beta-lactamases, use is here made of that proposed by M. H. RICHMOND and R. B. SYKES (see Advances in Microbial Physiology,9,(1973),pp.43 and 45).
as §1, §2

[6] = biological target: beta-lactamase P 99 (Enterobacter cloacae, UniProt P05364); experiment: Hydrolysis kinetics: residual activity in the presence of beta-lactamase; type: biochemical, Gram-negative bacteria
[7] = tested on: Escherichia coli K 12-44 R; experiment: MIC in gelose culture medium (relative to reference penicillin); type: cell-based; conditions: E.COLI K 12-44R; reference ampicillin = 1
Experimental: This strain is a pleiotropic mutant of Escherichia coli K 12-44, which we have produced. It is not a producer of beta-lactamase but, nevertheless, it has a resistance to penicillins, probably as a result of the modification of the permeability of the cell membranes.
as §1, §2

[8] = tested on: Escherichia coli K 12-44; experiment: as above; type: cell-based; conditions: E.COLI K 12-44; reference ampicillin = 1
Experimental: This is a mutant of Escherichia coli K 12, the typical reference parent strain of the species. This mutant is not a producer of beta-lactamase.
as §1, §2

[9] = biological target: beta-lactamase TEM (Escherichia coli, UniProt P62593); experiment: Hydrolysis kinetics: residual activity in the presence of beta-lactamase; type: biochemical, Gram-negative bacteria
[10] = tested on: Escherichia coli K 12-44 S; experiment: MIC in gelose culture medium (relative to reference penicillin); type: cell-based; conditions: E.COLI K 12-44S; reference ampicillin = 1
Experimental: It is very sensitive to penicillins due to hyperpermeability.
as §1, §2

[11] = reference 6-amino-penicillanic acid = 1

Sequence of beta-lactamase TEM (Escherichia coli, UniProt P62593) (P62593 24-286 limits assumed): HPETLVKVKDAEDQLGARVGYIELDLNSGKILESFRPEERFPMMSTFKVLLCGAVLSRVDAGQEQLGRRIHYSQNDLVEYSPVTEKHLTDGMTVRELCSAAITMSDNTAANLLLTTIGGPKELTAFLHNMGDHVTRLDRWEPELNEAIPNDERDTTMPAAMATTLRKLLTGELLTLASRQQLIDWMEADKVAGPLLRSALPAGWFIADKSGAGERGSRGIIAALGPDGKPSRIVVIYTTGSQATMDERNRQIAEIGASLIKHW
Sequence of beta-lactamase P 99 (P05364 21-381): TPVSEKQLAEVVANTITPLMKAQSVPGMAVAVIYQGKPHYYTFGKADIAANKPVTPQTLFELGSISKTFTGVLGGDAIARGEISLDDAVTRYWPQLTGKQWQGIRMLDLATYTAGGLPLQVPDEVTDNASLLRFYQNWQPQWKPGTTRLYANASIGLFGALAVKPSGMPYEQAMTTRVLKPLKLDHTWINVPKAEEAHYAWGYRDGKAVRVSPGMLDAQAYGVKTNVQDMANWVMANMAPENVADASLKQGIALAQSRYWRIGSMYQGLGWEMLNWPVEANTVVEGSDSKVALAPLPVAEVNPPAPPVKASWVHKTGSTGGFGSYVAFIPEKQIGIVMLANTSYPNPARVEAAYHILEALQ

SMILES: O=C(Cc1ccccc1)N[C@@H]1C(=O)N2[C@@H]1SC1(CCSCC1)[C@@H]2C(=O)O (relative stereo) [Compound E, 6-(2"-phenylacetamido)-2',3',5',6'-tetrahydro-spiro[penam-2,4'-[4H]thiopyran]-3-carboxylic acid]
MIC relative to reference compound (=1) ([1]; reference penicillin G = 1): 10
MIC relative to reference compound (=1) ([2]; reference penicillin G = 1): > 2
MIC relative to reference compound (=1) ([3]; reference penicillin G = 1): 1
Rate of hydrolysis: microliters 0.005 N NaOH consumed per minute [4]: 0.64 microliters 0.005 N NaOH per m
MIC relative to reference compound (=1) ([5]; reference penicillin G = 1): 5

MIC relative to reference compound (=1) ([3]; reference methicillin = 1): 1
SMILES: COc1cccc(OC)c1C(=O)N[C@@H]1C(=O)N2[C@@H]1SC(C)(C)[C@@H]2C(=O)O [Methicillin, methicillin, reference compound]

SMILES: CC1(C)S[C@@H]2C(N)C(=O)N2[C@H]1C(=O)O (stereo partly drawn) [Penicillanic acid, 6-amino-penicillanic acid, reference compound]
MIC relative to reference compound (=1) [1, 11]: 1
MIC relative to reference compound (=1) [2, 11]: 1
MIC relative to reference compound (=1) [3, 11]: 1
MIC relative to reference compound (=1) [5, 11]: 1

SMILES: NC(C(=O)NC1C(=O)N2C1SC1(CCSCC1)C2C(=O)O)c1ccccc1 (stereo not drawn) [Compound F, 6-(2"-amino-2"-phenylacetamido)-2',3',5',6'-tetrahydro-spiro[penam-2,4'-[4H]thiopyran]-3-carboxylic acid]
MIC relative to reference compound (=1) ([1]; reference ampicillin = 1): 2
Resistance to beta-lactamase as compared with ampicillin (in words) [6]: increased resistance
MIC relative to reference compound (=1) ([2]; reference ampicillin = 1): 3
MIC relative to reference compound (=1) [7]: > 1.5
MIC relative to reference compound (=1) [8]: 10
MIC relative to reference compound (=1) ([5]; reference ampicillin = 1): 7
Resistance to beta-lactamase as compared with ampicillin (in words) [9]: increased resistance
MIC relative to reference compound (=1) [10]: 15

SMILES: O=C(Cc1ccccc1)NC1C(=O)N2C1SC1(CC[S+]([O-])CC1)C2C(=O)O (stereo not drawn) [Compound H, 6-(2"-phenylacetamido)-2',3',5',6'-tetrahydro-spiro[penam-2,4'-[4H]thiopyran]-3-carboxylic acid 1'-oxide]
MIC relative to reference compound (=1) ([1]; reference penicillin G = 1): 1
MIC relative to reference compound (=1) ([3]; reference penicillin G = 1): 1
Rate of hydrolysis: microliters 0.005 N NaOH consumed per minute [4]: 0.50 microliters 0.005 N NaOH per m
MIC relative to reference compound (=1) ([5]; reference penicillin G = 1): 1

SMILES: CC1(C)S[C@@H]2[C@H](NC(=O)[C@H](N)c3ccccc3)C(=O)N2[C@H]1C(=O)O [Ampicillin, ampicillin, reference compound]
MIC relative to reference compound (=1) ([1]; reference ampicillin = 1): 1
Residual activity in the presence of beta-lactamase ([6]; incubation time 0 minutes): 500 µmol
Residual activity in the presence of beta-lactamase ([6]; incubation time 3 minutes): 262 µmol
Residual activity in the presence of beta-lactamase ([6]; incubation time 6 minutes): 138 µmol
Residual activity in the presence of beta-lactamase ([6]; incubation time 9 minutes): < 50 µmol
Residual activity in the presence of beta-lactamase ([6]; incubation time 9 minutes, listed as ampicillin): no more detectable
Residual activity in the presence of beta-lactamase ([6]; incubation time 12 minutes): < 50 µmol
Residual activity in the presence of beta-lactamase ([6]; incubation time 20 minutes): < 50 µmol
MIC relative to reference compound (=1) ([2]; reference ampicillin = 1): 1
MIC relative to reference compound (=1) [7]: 1
MIC relative to reference compound (=1) [8]: 1
MIC relative to reference compound (=1) ([5]; reference ampicillin = 1): 1
Residual activity in the presence of beta-lactamase ([9]; incubation time 0 minutes): 500 µmol
Residual activity in the presence of beta-lactamase ([9]; incubation time 6 minutes): < 50 µmol
Residual activity in the presence of beta-lactamase ([9]; incubation time 6 minutes, listed as ampicillin): no more detectable
Residual activity in the presence of beta-lactamase ([9]; incubation time 12 minutes): < 50 µmol
Residual activity in the presence of beta-lactamase ([9]; incubation time 18 minutes): < 50 µmol
MIC relative to reference compound (=1) [10]: 1

SMILES: N[C@@H](C(=O)NC1C(=O)N2C1SC1(CCOCC1)C2C(=O)O)c1ccccc1 (single isomer, unassigned) [Compound B, 6-(2"-amino-2"-phenylacetamido)-2',3',5',6'-tetrahydro-spiro[penam-2,4'-[4H]pyran]-3-carboxylic acid]
Remaining activity as percentage of initial ([6]; after incubation for 9 minutes): 67%
Residual activity in the presence of beta-lactamase ([6]; incubation time 0 minutes): 500 µmol
Residual activity in the presence of beta-lactamase ([6]; incubation time 3 minutes): 458 µmol
Residual activity in the presence of beta-lactamase ([6]; incubation time 6 minutes): 422 µmol
Residual activity in the presence of beta-lactamase ([6]; incubation time 9 minutes): 334 µmol
Residual activity in the presence of beta-lactamase ([6]; incubation time 12 minutes): 312 µmol
Residual activity in the presence of beta-lactamase ([6]; incubation time 20 minutes): 300 µmol
MIC relative to reference compound (=1) ([2]; reference ampicillin = 1): 1
MIC relative to reference compound (=1) [7]: 1.5
MIC relative to reference compound (=1) [8]: 3.5
MIC relative to reference compound (=1) ([5]; reference ampicillin = 1): 3.5
Remaining activity as percentage of initial ([9]; after incubation for 6 minutes): 87%
Residual activity in the presence of beta-lactamase ([9]; incubation time 0 minutes): 500 µmol
Residual activity in the presence of beta-lactamase ([9]; incubation time 2 minutes): 469 µmol
Residual activity in the presence of beta-lactamase ([9]; incubation time 4 minutes): 453 µmol
Residual activity in the presence of beta-lactamase ([9]; incubation time 6 minutes): 438 µmol
Residual activity in the presence of beta-lactamase ([9]; incubation time 12 minutes): 334 µmol
Residual activity in the presence of beta-lactamase ([9]; incubation time 18 minutes): 225 µmol

MIC relative to reference compound (=1) ([3]; reference methicillin = 1): 0.5
SMILES: COc1cccc(OC)c1C(=O)N[C@@H]1C(=O)N2[C@@H]1SC1(CCSCC1)[C@@H]2C(=O)O (relative stereo) [Compound G, 6-(2",6"-dimethoxybenzamido)-2',3',5',6'-tetrahydro-spiro[penam-2,4'-[4H]thiopyran]-3-carboxylic acid]

SMILES: O=C(Cc1ccccc1)N[C@@H]1C(=O)N2[C@@H]1SC1(CCOCC1)[C@@H]2C(=O)O (relative stereo) [Compound A, 6-(2"-phenylacetamido)-2',3',5',6'-tetrahydro-spiro[penam-2,4'-[4H]pyran]-3-carboxylic acid]
MIC relative to reference compound (=1) ([1]; reference penicillin G = 1): 2
MIC relative to reference compound (=1) ([2]; reference penicillin G = 1): 2
MIC relative to reference compound (=1) ([3]; reference penicillin G = 1): 2
MIC relative to reference compound (=1) ([5]; reference penicillin G = 1): 4

SMILES: NC(C(=O)NC1C(=O)N2C1SC1(CC[S+]([O-])CC1)C2C(=O)O)c1ccccc1 (stereo not drawn) [Compound J, 6-(2"-amino-2"-phenylacetamido)-2',3',5',6'-tetrahydro-spiro[penam-2,4'-[4H]thiopyran]-3-carboxylic acid 1'-oxide]
MIC relative to reference compound (=1) ([1]; reference ampicillin = 1): 2
Resistance to beta-lactamase as compared with ampicillin (in words) [6]: No change in behavior
MIC relative to reference compound (=1) ([2]; reference ampicillin = 1): 2
MIC relative to reference compound (=1) [7]: 2
MIC relative to reference compound (=1) [8]: 3
MIC relative to reference compound (=1) ([5]; reference ampicillin = 1): 1
Resistance to beta-lactamase as compared with ampicillin (in words) [9]: No change in behavior
MIC relative to reference compound (=1) [10]: 3

SMILES: Cc1onc(-c2ccccc2)c1C(=O)N[C@@H]1C(=O)N2[C@@H]1SC1(CCOCC1)[C@@H]2C(=O)O (relative stereo) [Compound C, 6-(5"-methyl-3"-phenyl-4"-isoxazolecarboxamido)-2',3',5',6'-tetrahydro-spiro[penam-2,4'-[4H]pyran]-3-carboxylic acid]
MIC relative to reference compound (=1) ([1]; reference oxacillin = 1): 2
MIC relative to reference compound (=1) ([3]; reference oxacillin = 1): 1

SMILES: Cc1onc(-c2ccccc2)c1C(=O)N[C@@H]1C(=O)N2[C@@H]1SC(C)(C)[C@@H]2C(=O)O [Oxacillin, oxacillin, reference compound]
MIC relative to reference compound (=1) ([1]; reference oxacillin = 1): 1
MIC relative to reference compound (=1) ([3]; reference oxacillin = 1): 1

SMILES: CC1(C)S[C@@H]2[C@H](NC(=O)Cc3ccccc3)C(=O)N2[C@H]1C(=O)O [Penicillin G, penicillin G, reference compound]
MIC relative to reference compound (=1) ([1]; reference penicillin G = 1): 1
MIC relative to reference compound (=1) ([3]; reference penicillin G = 1): 1
Rate of hydrolysis: microliters 0.005 N NaOH consumed per minute [4]: 3.83 microliters 0.005 N NaOH per m
